Data: patent US20240279278A1, “NMU RECEPTOR 2 AGONISTS” (Boehringer Ingelheim International GmbH, priority 2023, published 2024)
Starred links: 1 amine or outer side, 2 acyl side, 3 side chain; linkers in the order of their positions; H or OH if unused. Non-standard residues stand in square brackets, D forms with d. Residues, ends and D or L forms follow the SMILES beside them. *: point of attachment. Pipz(1-CH2CO,4-CH2CH2NH) = O=C(CN1CCN(CCN[*:1])CC1)[*:2]; C18 diacid = O=C(O)CCCCCCCCCCCCCCCCC(=O)*; γGlu = O=C(O)[C@H](CCC(=O)[*:2])N[*:1]; 4Pal = N[C@@H](Cc1ccncc1)C(=O)O; NMeL = CN[C@@H](CC(C)C)C(=O)O; Nle = CCCC[C@H](N)C(=O)O; Sar = CNCC(=O)O

Assays:
Type in all cases: cell-based
[1] = molecular target: T1, human NMUR1 receptor (Homo sapiens, UniProt Q9HB89); assay: IP1 Gq HTRF assay, activation of human NMUR1 in buffer; settings: CHO-K1 cells expressing human NMUR1, stimulation buffer with 0.1% BSA; read-out: EC50 (hNMUR1) buffer
T1 construct: expressed in transfected cells; host or cells: CHO-K1
T1 sequence (Q9HB89 1-426): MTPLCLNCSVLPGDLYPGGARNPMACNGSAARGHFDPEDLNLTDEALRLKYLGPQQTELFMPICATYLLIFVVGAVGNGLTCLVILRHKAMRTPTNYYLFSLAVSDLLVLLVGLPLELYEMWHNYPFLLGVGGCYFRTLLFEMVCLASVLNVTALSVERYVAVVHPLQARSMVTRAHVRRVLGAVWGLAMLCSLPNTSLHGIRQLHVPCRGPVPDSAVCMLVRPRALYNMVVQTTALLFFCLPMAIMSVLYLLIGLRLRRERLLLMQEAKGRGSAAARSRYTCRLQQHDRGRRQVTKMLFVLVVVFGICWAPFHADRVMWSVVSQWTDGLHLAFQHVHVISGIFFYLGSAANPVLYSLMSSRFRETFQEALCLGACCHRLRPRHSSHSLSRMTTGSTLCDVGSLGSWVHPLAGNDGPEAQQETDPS
How it was run: (§1)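 IP-One HTRF competition (665/620 nm ratio) read after 1 h agonist exposure at 37 °C in pH 7.4 HEPES/HBSS stimulation buffer containing 50 mM LiCl, 0.1% BSA, 1% DMSO. Cells: CHO-K1 stably expressing human NMUR2 or NMUR1. EC50 by 4-parameter nonlinear regression of 8-point curves.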

[2] = molecular target: T2, human NMUR2 receptor (Homo sapiens, UniProt Q9GZQ4); assay: IP1 Gq HTRF assay, activation of human NMUR2 in buffer; parameters: expressed in transfected cells; host or cells: CHO-K1; settings: CHO-K1 cells expressing human NMUR2, stimulation buffer with 0.1% BSA; read-out: EC50 (hNMUR2) buffer
How it was run: as §1

[3] = molecular target: T2, human NMUR2 receptor; assay: IP1 Gq HTRF assay, activation of human NMUR2 in human plasma; parameters: expressed in transfected cells; host or cells: CHO-K1; settings: CHO-K1 cells expressing human NMUR2, 100% human plasma; read-out: EC50 (hNMUR2) human plasma
How it was run: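 EC50 obtained via 4-parameter sigmoidal regression of HTRF IP-One signal (665 nm/620 nm), which falls as intracellular IP1 rises. Stimulation: 1 h, 37° C, peptides in human plasma plus 50 mM LiCl, 1% DMSO final, on NMUR2-expressing CHO-K1 cells, 8 concentrations.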

T2 sequence (Q9GZQ4 whole entry): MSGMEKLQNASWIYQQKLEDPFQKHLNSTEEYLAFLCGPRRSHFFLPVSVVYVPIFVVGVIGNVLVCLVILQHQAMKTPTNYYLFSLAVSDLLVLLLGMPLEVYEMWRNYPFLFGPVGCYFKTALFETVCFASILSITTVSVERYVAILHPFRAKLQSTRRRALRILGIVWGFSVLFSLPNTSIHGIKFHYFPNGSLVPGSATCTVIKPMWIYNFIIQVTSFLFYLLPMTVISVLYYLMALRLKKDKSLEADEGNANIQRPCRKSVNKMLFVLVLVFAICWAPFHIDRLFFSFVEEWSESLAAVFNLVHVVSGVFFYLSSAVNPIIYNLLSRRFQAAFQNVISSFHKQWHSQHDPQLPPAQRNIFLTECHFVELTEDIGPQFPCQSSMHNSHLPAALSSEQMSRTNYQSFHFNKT

SMILES | EC50 [1] | EC50 [2] | EC50 [3]
CCCC[C@H](NC(=O)[C@H](CC(C)C)N(C)C(=O)[C@H](Cc1ccccc1)NC(=O)[C@H](Cc1ccc(O)cc1)NC(=O)CN1CCN(CCNC(=O)CN(C)C(=O)CN(C)C(=O)CN(C)C(=O)CN(C)C(=O)CN(C)C(=O)CN(C)C(=O)CN(C)C(=O)CN(C)C(=O)CN(C)C(=O)CN(C)C(=O)CN(C)C(=O)CN(C)C(=O)CC[C@H](NC(=O)CC[C@H](NC(=O)CC[C@H](NC(=O)CCCCCCCCCCCCCCCCC(=O)O)C(=O)O)C(=O)O)C(=O)O)CC1)C(=O)N(C)[C@@H](CCCNC(=N)N)C(=O)N1CCC[C@H]1C(=O)N[C@@H](CCCNC(=N)N)C(=O)NCC(N)=O [Compound 35, C18DA-gGlu3-Sar12-AEPipAc-Tyr-Phe-NMeLeu-Nle-NMeArg-Pro-Arg-Gly-NH2] | 190 nM | 1.5 nM | 9.4 nM
CCCC[C@H](NC(=O)[C@H](CC(C)C)N(C)C(=O)[C@H](Cc1ccccc1)NC(=O)[C@H](Cc1ccc(O)cc1)NC(=O)CN1CCN(CCNC(=O)CN(C)C(=O)CN(C)C(=O)CN(C)C(=O)CN(C)C(=O)CN(C)C(=O)CN(C)C(=O)CN(C)C(=O)CN(C)C(=O)CN(C)C(=O)CN(C)C(=O)CN(C)C(=O)CN(C)C(=O)CN(C)C(=O)CN(C)C(=O)CN(C)C(=O)CC[C@H](NC(=O)CC[C@H](NC(=O)CC[C@H](NC(=O)CCCCCCCCCCCCCCCCCCC(=O)O)C(=O)O)C(=O)O)C(=O)O)CC1)C(=O)N(C)[C@@H](CCCNC(=N)N)C(=O)N(C)[C@@H](C)C(=O)N[C@@H](CCCNC(=N)N)C(=O)NCC(N)=O [Compound 36, C20DA-gGlu3-Sar15-AEPipAc-Tyr-Phe-NMeLeu-Nle-NMeArg-NMeAla-Arg-Gly-NH2] (HELM PEPTIDE1{[O=C(O)CCCCCCCCCCCCCCCCCCC(=O)[*:2]].[gGlu].[gGlu].[gGlu].[Sar].[Sar].[Sar].[Sar].[Sar].[Sar].[Sar].[Sar].[Sar].[Sar].[Sar].[Sar].[Sar].[Sar].[Sar].[O=C(CN1CCN(CCN[*:1])CC1)[*:2]].Y.F.[meL].[Nle].[meR].[meA].R.G.[am]}$$$$V2.0) | 1400 nM | 4.7 nM | 18.3 nM
CCCC[C@H](NC(=O)[C@H](CC(C)C)N(C)C(=O)[C@H](Cc1ccccc1)NC(=O)[C@H](Cc1ccc(O)cc1)NC(=O)CN1CCN(CCNC(=O)CN(C)C(=O)CN(C)C(=O)CN(C)C(=O)CN(C)C(=O)CN(C)C(=O)CN(C)C(=O)CN(C)C(=O)CN(C)C(=O)CN(C)C(=O)CN(C)C(=O)CN(C)C(=O)CN(C)C(=O)CC[C@H](NC(=O)CC[C@H](NC(=O)CC[C@H](NC(=O)CCCCCCCCCCCCCCCCC(=O)O)C(=O)O)C(=O)O)C(=O)O)CC1)C(=O)N(C)[C@@H](CCCNC(=N)N)C(=O)N(C)[C@@H](C)C(=O)N[C@@H](CCCNC(=N)N)C(=O)NCC(N)=O [Compound 37, C18DA-gGlu3-Sar12-AEPipAc-Tyr-Phe-NMeLeu-Nle-NMeArg-NMeAla-Arg-Gly-NH2] | 1300 nM | 3.5 nM | 27.1 nM
CCCC[C@H](NC(=O)[C@H](CC(C)C)N(C)C(=O)[C@H](Cc1ccccc1)NC(=O)[C@H](Cc1ccc(O)cc1)NC(=O)CN1CCN(CCNC(=O)CN(C)C(=O)CN(C)C(=O)CN(C)C(=O)CN(C)C(=O)CN(C)C(=O)CN(C)C(=O)CN(C)C(=O)CN(C)C(=O)CN(C)C(=O)CC[C@H](NC(=O)CC[C@H](NC(=O)CCCCCCCCCCCCCCCCC(=O)O)C(=O)O)C(=O)O)CC1)C(=O)N[C@@H](CCCN)C(=O)N(C)[C@@H](C)C(=O)N[C@@H](CCCNC(=N)N)C(=O)NCC(N)=O [Compound 44, C18DA-gGlu2-Sar9-AEPipAc-Tyr-Phe-NMeLeu-Nle-Orn-NMeAla-Arg-Gly-NH2] (HELM PEPTIDE1{[O=C(O)CCCCCCCCCCCCCCCCC(=O)[*:2]].[gGlu].[gGlu].[Sar].[Sar].[Sar].[Sar].[Sar].[Sar].[Sar].[Sar].[Sar].[O=C(CN1CCN(CCN[*:1])CC1)[*:2]].Y.F.[meL].[Nle].[Orn].[meA].R.G.[am]}$$$$V2.0) | > 1000 nM | 2.2 nM | 20.5 nM

More lines, now with the values ahead:

EC50 [1] | EC50 [2] | EC50 [3] | SMILES
190 nM | 2.5 nM | 10.4 nM | CCCC[C@H](NC(=O)[C@H](CC(C)C)N(C)C(=O)[C@H](Cc1ccccc1)NC(=O)[C@H](Cc1ccc(O)cc1)NC(=O)CN1CCN(CCNC(=O)CN(C)C(=O)CN(C)C(=O)CN(C)C(=O)CN(C)C(=O)CN(C)C(=O)CN(C)C(=O)CN(C)C(=O)CN(C)C(=O)CN(C)C(=O)CN(C)C(=O)CN(C)C(=O)CN(C)C(=O)CC[C@H](NC(=O)CC[C@H](NC(=O)CC[C@H](NC(=O)CC[C@H](NC(=O)CCCCCCCCCCCCCCCCCCC(=O)O)C(=O)O)C(=O)O)C(=O)O)C(=O)O)CC1)C(=O)N[C@@H](CCCNC(=N)N)C(=O)N1CCC[C@H]1C(=O)N[C@@H](CCCNC(=N)N)C(=O)NCC(N)=O [Compound 39, C20DA-gGlu4-Sar12-AEPipAc-Tyr-Phe-NMeLeu-Nle-Arg-Pro-Arg-Gly-NH2]
1300 nM | 2 nM | 12.2 nM | CCCC[C@H](NC(=O)[C@H](CC(C)C)N(C)C(=O)[C@H](Cc1ccccc1)NC(=O)[C@H](Cc1ccc(O)cc1)NC(=O)CN1CCN(CCNC(=O)CN(C)C(=O)CN(C)C(=O)CN(C)C(=O)CN(C)C(=O)CN(C)C(=O)CN(C)C(=O)CN(C)C(=O)CN(C)C(=O)CN(C)C(=O)CN(C)C(=O)CN(C)C(=O)CN(C)C(=O)CC[C@H](NC(=O)CC[C@H](NC(=O)CC[C@H](NC(=O)CC[C@H](NC(=O)CCCCCCCCCCCCCCCCC(=O)O)C(=O)O)C(=O)O)C(=O)O)C(=O)O)CC1)C(=O)N[C@@H](CCN)C(=O)N1CCC[C@H]1C(=O)N[C@@H](CCCNC(=N)N)C(=O)NCC(N)=O [Compound 41, C18DA-gGlu4-Sar12-AEPipAc-Tyr-Phe-NMeLeu-Nle-Dbu-Pro-Arg-Gly-NH2]
> 1000 nM | 30 nM | 129 nM | CCCC[C@H](NC(=O)[C@H](CC(C)C)N(C)C(=O)[C@H](Cc1ccccc1)NC(=O)[C@H](Cc1ccc(O)cc1)NC(=O)CN1CCN(CCNC(=O)CN(C)C(=O)CN(C)C(=O)CN(C)C(=O)CN(C)C(=O)CN(C)C(=O)CN(C)C(=O)CN(C)C(=O)CN(C)C(=O)CN(C)C(=O)CN(C)C(=O)CN(C)C(=O)CN(C)C(=O)CN(C)C(=O)CN(C)C(=O)CN(C)C(=O)CC[C@H](NC(=O)CC[C@H](NC(=O)CC[C@H](NC(=O)CCCCCCCCCCCCCCCCC(=O)O)C(=O)O)C(=O)O)C(=O)O)CC1)C(=O)N[C@@H](Cc1ccncc1)C(=O)N1CCC[C@H]1C(=O)N[C@@H](CCCNC(=N)N)C(=O)NCC(N)=O [Compound 45, C18DA-gGlu3-Sar15-AEPipAc-Tyr-Phe-NMeLeu-Nle-4Pal-Pro-Arg-Gly-NH2] ({C18 diacid-γGlu-γGlu-γGlu}-[Sar][Sar][Sar][Sar][Sar][Sar][Sar][Sar][Sar][Sar][Sar][Sar][Sar][Sar][Sar][Pipz(1-CH2CO,4-CH2CH2NH)]YF[NMeL][Nle][4Pal]PRG-NH2)
